Measured values reported in patent US9732094B2, “Arylquinazolines” (Merck Patent GmbH, priority 2013, dated 2017).
Read-outs that look alike come from different tables or passages of the source.

Assays:
DNA-PK = DNA-PK (Homo sapiens (Human), UniProt P78527); experiment: DNA-PK assay (biochemical), flashplate 33P-ATP kinase assay
Procedure: A) DNA-PK Assay (Biochemical)
The kinase assay was carried out in streptavidin-coated […] microtitre flashplates. […] The reaction was stopped using 50 μl/well of 200 mM EDTA. After incubation for a further 30 min at room temperature, the liquid was removed. Each well was washed three times with 100 μl of 0.9% saline solution. A nonspecific reaction (blank value) was determined using 10 μM of an innate kinase inhibitor. The radioactivity measurement was carried out using a TopCount. IC50 values were calculated in RS1.

[1] = molecular target: DNA-PK phosphorylation at serine 2056 (Homo sapiens (Human), UniProt P78527); experiment: DNA-PK phosphorylation at serine 2056 (cellular), bleomycin-treated HCT116 cells, ELISA; type: cell-based; settings: read-out: IC50 pDNA-PK
Procedure: HCT116 cells were cultivated at 37° C. and 10% CO2 in MEM alpha medium with 10% of foetal calf serum and 2 mM glutamine. The cells were detached from the base of the culture vessels with the aid of trypsin/EDTA, centrifuged off in centrifuge tubes, taken up in fresh medium, and the cell density was determined. 100,000 cells were sown in 1 ml of culture medium per cavity of a 24-well cell culture plate and cultivated overnight. Next day, 10 μM bleomycin (DNA intercalator and inductor of DNA double-strand breaks) and test substances in fresh culture medium were added to the cells, and these were cultivated for a further six hours. […] The 96-well ELISA plates were subsequently treated with a detection antibody (Abcam ab79444: total DNA-PK) and a streptavidin-HRP conjugate. The development of the enzymatic reaction was carried out with the aid of a chemiluminescent reagent, the chemiluminescence was measured with the aid of a Mithras LB940. The signals with the phospho-DNA-PK-specific antibody were standardised to the signal with the antibody against the total protein DNA-PKc. […] The DMSO control was used as blank.

[2] = cellular, HCT116 cells, 10 μM bleomycin, six hours
[3] = cellular DNA-PK phosphorylation at serine 2056, HCT116

IC50 (DNA-PK; Table 5) [nM] | SMILES | further results
7 to 30 | COC(c1ccc(F)c(-c2ncnc3cc(N4CCOCC4)ccc23)c1)c1nccs1 (stereo not drawn) [Example 176, 4-[2-Fluoro-5-(-methoxy-thiazol-2-ylmethyl)phenyl]-7-morpholin-4-yl-quinazoline] | 
> 30 | OC(c1csc(-c2ncnc3cc(N4CCOCC4)ccc23)c1)c1nccs1 (stereo not drawn) [Example 164, [5-(7-Morpholin-4-ylquinazolin-4-yl)-thiophen-3-yl]-thiazol-2-yl-methanol] | 
> 30 | COC(c1ccc(F)c(-c2ncnc3cc(N4CCOCC4)ccc23)c1)c1nccs1 (stereo not drawn) [Example 175, 4-[2-Fluoro-5-(methoxy-thiazol-2-ylmethyl)phenyl]-7-morpholin-4-yl-quinazoline] | 

The next lines start with the molecule.

SMILES | IC50 (DNA-PK; Table 5) [nM] | further results
Cc1nccnc1C(O)c1cc(-c2ncnc3cc(N4CCOCC4)ccc23)c(F)cc1F (stereo not drawn) [Example 85] |  | IC50 (DNA-PK; enzymatic, 5 μM ATP): < 3 nM; IC50 [1, 2]: 500 to 5000 nM
COc1nccnc1C(O)c1cc(-c2ncnc3cc(N4CCOCC4)cc(F)c23)c(F)cc1Cl (stereo not drawn) [Example 266, [2-Chloro-4-fluoro-5-(5-fluoro-7-morpholin-4-yl-quinazolin-4-yl)-phenyl]-(3-methoxy-pyrazin-2-yl)-methanol] |  | IC50 [1, 3]: < 500 nM
COc1nccnc1C(O)c1cc(-c2ncnc3cc(N4CCOCC4)cc(F)c23)c(F)cc1Cl (stereo not drawn) [Example 250, [2-Chloro-4-fluoro-5-(5-fluoro-7-morpholin-4-yl-quinazolin-4-yl)-phenyl]-(3-methoxy-pyrazin-2-yl)-methanol] |  | IC50 [1, 3]: < 500 nM
COc1ccc(C(O)c2cc(-c3ncnc4cc(N5CCOCC5)sc34)c(F)cc2Cl)nn1 (single isomer, unassigned) [Example 127, [2-Chloro-4-fluoro-5-(6-morpholin-4-ylthieno[3,2-d}-pyrimidin-4-yl)-phenyl]-(6-methoxy-pyridazin-3-yl)-methanol] |  | IC50 (DNA-PK; enzymatic, 5 μM ATP): 3 to 7 nM; IC50 [1, 2]: 5000 to 10000 nM
OC(c1cncc(-c2ncnc3cc(N4CCOCC4)ccc23)c1)c1nccs1 (stereo not drawn) [Example 184, [5-(7-Morpholin-4-ylquinazolin-4-yl)-pyridin-3-yl]thiazol-2-ylmethanol] | 7 to 30 | 
Cc1ccc(C(C)(O)c2nccs2)cc1-c1ncnc2cc(N3CCOCC3)ccc12 (stereo not drawn) [Example 155, 1-[4-methyl-3-(7-morpholin-4-yl-quinazolin-4-yl)-phenyl)-1-thiazol-2-ylethanol] | > 30 | 
CC(O)(c1cncc(-c2ncnc3cc(N4CCOCC4)ccc23)c1)c1nccs1 (stereo not drawn) [Example 151, 1-[5-(7-Morpholin-4-ylquinazolin-4-yl)-pyridin-3-yl]-1-thiazol-2-ylethanol] | > 30 | 
CC(O)(c1cc(-c2ncnc3cc(N4CCOCC4)ccc23)ccn1)c1nccs1 (stereo not drawn) [Example 153, 1-[4-(7-Morpholin-4-ylquinazolin-4-yl)-pyridin-2-yl]-1-thiazol-2-ylethanol] | > 30 | 
CC(O)(c1cc(-c2ncnc3cc(N4CCOCC4)ccc23)cs1)c1nccs1 (stereo not drawn) [Example 156, 1-[4-(7-Morpholin-4-ylquinazolin-4-yl)-thiophen-2-yl]-1-thiazol-2-ylethanol] | > 30 | 
OC(c1ccc(-c2ncnc3cc(N4CCOCC4)ccc23)s1)c1nccs1 (stereo not drawn) [Example 160, [5-(7-Morpholin-4-ylquinazolin-4-yl)-thiophen-2-yl]-thiazol-2-yl-methanol] | > 30 | 
OC(c1cncc(-c2ncnc3cc(N4CCOCC4)ccc23)c1)c1nccs1 (stereo not drawn) [Example 183, [5-(7-Morpholin-4-ylquinazolin-4-yl)-pyndin-3-yl]thiazol-2-ylmethanol] | 7 to 30 | 
OC(c1ccc(F)c(-c2ncnc3cc(N4CCOCC4)sc23)c1)c1nccs1 (stereo not drawn) [Example 146, [4-fluoro-3-(6-morpholin-4-ylthieno[3,2-d]pyrimidin-4-yl)phenyl]thiazol-2-ylmethanol] |  | IC50 ([1]; Table 5, HCT116 cells): 500 to 5000 nM
CC(O)(c1nccs1)c1cccc(-c2ncnc3cc(N4CCOCC4)ccc23)c1F (stereo not drawn) [Example 162, 1-[2-Fluoro-3-(7-morpholin-4-yl-quinazolin-4-yl)-phenyl]-1-thiazol-2-ylethanol] | > 30 | 
